From patent publication US9085761B1, “Methods and compositions for amplification of nucleic acids” (Affymetrix, Inc., priority 2012, dated 2015)

Assays:
Taq DNA Polymerase = target: T1, Taq DNA Polymerase (Thermus aquaticus, UniProt P19821); assay: PCR amplification of a 455 bp human numb target with Taq DNA Polymerase in the presence of surfactant, product seen on agarose gel; type: biochemical; conditions: for PCR product of the expected size: FIG. 1, diluted Taq with 0.00011% Tween-20 and NP-40 carry-over; for Function: Table 1 summary: surfactants or blocked co-polymers that worked in the assay used and those that did not
T1 construct: made in house
Protocol: In order to test the efficacy of detergents on Taq DNA Polymerase, a stock of Taq DNA Polymerase at a base concentration of 111 units/ul was diluted to 5 units/ul in a storage buffer that lacked detergents. The standard Taq DNA Polymerase storage buffer has 0.5% Tween-20 and 0.5% NP-40. In this example 0.625 units of Taq were added per 25 ul reaction, so that represents a change in final detergent concentration of 0.0025% each detergent to 0.00011% of each. A 455 bp single-copy target from the human numb gene was PCR-amplified from 1 ng human genomic DNA in a 25 ul reaction with 0.625 units of the diluted Taq DNA polymerase. The cycling conditions were 95° C. for 2 minutes; 35 cycles of 95° C. for 10 seconds, 55° C. for 20 seconds, and 72° C. for 30 seconds; 72° C. for 5 minutes; and 10° C. until required. An aliquot of 10 ul was run on a 1.5% agarose/ethidium bromide gel.
In FIG. 1, the results of the initial screen of several non-ionic and zwitterionic detergents are shown. In this example there is residual Tween-20 and NP-40 in the enzyme storage buffer. The concentrations of surfactants listed are the final concentration of that surfactant in the assay. All conditions in the example, including the “no detergent” condition, have 0.00011% Tween-20 and 0.00011% NP-40 resulting from carry-over from the enzyme storage buffer. […] As expected Tween-20 and NP-40 worked when present at 0.01% and 0.1%. […] A0-12-2 worked at 0.01% and PEO(10)SAP worked at 0.01, 0.1 and 1%. It is clear that in addition to the standard non-ionic detergents with PEOn, a zwitterionic or ylide with that polymer will also contribute to PCR product generation.
Because a small amount of Tween-20 and NP-40 was carried over in the previous experiment, Taq DNA Polymerase was purified without the addition of detergents after the lysis step to provide a “detergent-free” Taq for use in the next example. The previous numb target and reaction conditions were used with 0.625 units of Taq per reaction.
To further test the effectiveness of PEOn-derivatives, the denaturation temperature was changed from 95° C. to 98° C. in the cycling protocol. This increase in temperature adds additional stress to the function of Taq DNA Polymerase. A selection of PLURONIC® and TETRONIC® surfactants were tested (labels in the figures are abbreviated, for example, “T908” refers to TETRONIC® 908 and “P F87” refers to PLURONIC® F87). In addition, TETRONIC® 904 and 1107 were modified to amine-oxide, forms and then tested.

[1] = system: thermostable DNA polymerase; assay: Evaluation of protecting groups for reversible modification (hot-start inactivation) of thermostable polymerase; type: biochemical; conditions: reactivity tested in Tris pH 8 or Tricine pH 8.8
Protocol: Three classes of protecting groups were evaluated: 2,3-substituted maleic anhybrides, alpha-activated compounds that can undergo beta-elimination and molecules that can undergo intramolecular cyclic displacement or assisted elimination. The experimental compounds had the general structure:
Where Y could be N-hydroxysuccinimide (NHS), p-nitrophenol (pNP), or imidazole and X could be CONMe2, MeSO2, CN, NO2, CO2Me, (CH2)2SMe, N(CH3)CHO, or CH2C(O)CH3. The reactivity was tested in Tris pH 8 or Tricine pH 8.8. Buffer pH measurements are at room temperature (˜25° C.). […]

[2] = Cloud point of surfactant; type: physicochemical; conditions: about 1% detergent concentration in 6×SSPE buffer
Protocol: In some aspects surfactants are selected for use in the methods because they have a cloud point (temperature at which the solid begins to precipitate and give the fluid a cloudy appearance) greater than or equal to 80° C., greater than or equal to 90° C. and in particularly preferred aspects the cloud point is greater than about 100° C. (in each case when measured at about 1% aqueous). The cloud point is the temperature above which a surfactant solution separates into a detergent rich phase and a detergent poor phase (see, Rosen et al. Surfactants and interfacial Phenomena, ^3rd ed. 2004, Hoboken; John Wiley & Sons, Inc. and Neugebauer, J. M. Detergents: an overview, Methods Enzymol, 1990, 182, p. 239-53). The separation is visualized as turbidity within the solution. An increase in temperature favors micelle formation; the rapid growth of micelles along with intermicellar attraction likely results in the formation of large particles that can precipitate out of solution, thus causing turbidity. This phase separation is reversible upon cooling. […]
The amine oxide detergents of the present invention have higher cloud points than their non-amine oxide counterparts. For example, PEO(10)stearlyamine has a cloud point of 60° C. compared to PEO(10)stearylamine N-oxide's cloud point of greater than 100° C., in both cases when measured at about 1% detergent concentration in 6×SSPE buffer. […]

T1 sequence (P19821 whole entry): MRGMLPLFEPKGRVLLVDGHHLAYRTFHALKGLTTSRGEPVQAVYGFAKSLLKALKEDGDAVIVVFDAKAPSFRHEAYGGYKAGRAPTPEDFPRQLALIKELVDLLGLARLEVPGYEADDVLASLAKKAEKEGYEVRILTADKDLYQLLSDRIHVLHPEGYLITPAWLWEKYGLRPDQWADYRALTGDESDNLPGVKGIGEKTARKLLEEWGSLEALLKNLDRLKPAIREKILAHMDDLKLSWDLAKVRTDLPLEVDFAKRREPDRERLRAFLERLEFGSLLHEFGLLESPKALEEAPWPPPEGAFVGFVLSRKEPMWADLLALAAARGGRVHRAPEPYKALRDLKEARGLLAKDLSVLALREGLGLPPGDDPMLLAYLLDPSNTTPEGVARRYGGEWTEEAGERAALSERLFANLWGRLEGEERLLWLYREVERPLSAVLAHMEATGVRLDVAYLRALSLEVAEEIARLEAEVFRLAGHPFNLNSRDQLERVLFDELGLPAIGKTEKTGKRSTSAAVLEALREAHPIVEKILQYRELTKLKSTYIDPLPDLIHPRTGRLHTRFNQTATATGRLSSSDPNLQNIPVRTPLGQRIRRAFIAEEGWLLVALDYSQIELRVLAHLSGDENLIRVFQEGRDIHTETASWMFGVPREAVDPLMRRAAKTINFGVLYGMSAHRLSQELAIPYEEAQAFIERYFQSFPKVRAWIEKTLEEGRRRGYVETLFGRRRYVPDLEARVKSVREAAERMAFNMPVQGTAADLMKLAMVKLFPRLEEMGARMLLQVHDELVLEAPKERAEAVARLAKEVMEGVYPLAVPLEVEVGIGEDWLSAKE

Compound | PCR product of the expected size (Taq DNA Polymerase; 0.01% surfactant final) | PCR product of the expected size (Taq DNA Polymerase; 0.1% surfactant final) | PCR product of the expected size (Taq DNA Polymerase; 1% surfactant final) | Function (Taq DNA Polymerase) | also measured
CCCCCCCCCCCC[N+]([O-])(CCO)CCO [AO-12-2, N,N-Bis(2-hydroxyethyl)laurylamine N-Oxide] | resulted in a product | not | not | – | PCR product of the expected size (Taq DNA Polymerase; 0.01% surfactant final, listed as A0-12-2): worked
CS(=O)(=O)CCOC(=O)Oc1ccc([N+](=O)[O-])cc1 [MSEC, 2-(Methylsulfonyl)ethyl 4-nitrophenyl carbonate] | – | – | – | – | effectiveness as reversible modifier of polymerase [1]: most effective
NP 40 [reference compound] | worked | worked | – | YES | –
PEO(10) Stearyl (3-sulfo-propyl)-ammonium [PEO(10) SAPS] | – | – | – | YES | –
Polyethoxylated (10) Stearylamine N-Oxide [PE0 (10) SAO] | worked | worked | worked | YES | cloud point [2]: greater than 100 °C; PCR product (Taq DNA Polymerase; detergent-free Taq DNA Polymerase, FIG. 2, 3, 4): PCR product was observed
Polyethoxylated/Polypropoxylated (isodecyloxypropyl)amine N-Oxide [AO-405] | – | – | – | – | PCR product of the expected size (Taq DNA Polymerase; concentration not given): no visible product
